# Assay results published in patent US4808588A, “Heterocyclic ureas and carbonates useful as pharmaceuticals” (Beecham Group, p.l.c., priority 1986, dated 1989).
# Test system: von Bezold-Jarisch reflex evoked by 5-HT
# Assay: Antagonism of the von Bezold-Jarisch reflex evoked by 5-HT in the anaesthetised rat
# Assay type: in vivo
# Details: anaesthetised male rats, compound intravenous, 5-HT usually 6 μg/kg i.v., heart rate changes, read-out: ED50 (concentration required to reduce the 5-HT-evoked response to 50% of the control response)
# Description: Antagonism of the von Bezold-Jarisch reflex
# The compounds were evaluated for antagonism of the von Bezold-Jarisch reflex evoked by 5-HT in the anaesthetised rat according to the following method:
# Male rats 250-350 g, were anaesthetised with urethane (1.25 g/kg intraperitoneally) and blood pressure and heart rate recorded as described by Fozard J. R. et al., J. Cardiovasc. Pharmacol. 2, 229-245 (1980). A submaximal dose of 5-HT (usually 6 μg/kg) was given repeatedly by the intravenous route and changes in heart rate quantified. Compounds were given intravenously and the concentration required to reduce the 5-HT-evoked response to 50% of the control response (ED50) was then determined.
row,Structure (SMILES),ED50 [µg/kg]
1,"COc1ncccc1NC(=O)N[C@H]1C[C@H]2CC[C@@H](C1)N2C [Compound 1, (endo)-N-(8-Methyl-8-azabicyclo[3.2.1]oct-3-yl)-N'-(2-methoxy-pyrid-3-yl)urea]",7.5
2,"COc1ccsc1NC(=O)N[C@H]1C[C@H]2CC[C@@H](C1)N2C [Compound 3, (endo)-N-(8-Methyl-8-azabicyclo[3,2,1]oct-3-yl)-N'-(3-methoxythiophen-2-yl)urea]",1
3,"COc1cscc1NC(=O)N[C@H]1C[C@H]2CC[C@@H](C1)N2C [Compound 5, (endo)-N-(8-Methyl-8-azabicyclo[3,2,1]oct-3-yl)-N'-(4-methoxythiophen-3-yl)urea]",2
